Results as given in patent US20140179677A1, “THERAPEUTIC AGENT FOR ECTOPIC PREGNANCY” (AKITA UNIVERSITY, priority 2010, published 2014).

Columns and labels:
[1] = tested on: human placental villous explants (villous cytotrophoblasts); assay: Human villous explant culture: trophoblast proliferation and viability (H&E, PCNA, Ki-67, glucose utilization); format: cell-based; conditions: for detachment of trophoblast layers from villous stromal core / number of villous cytotrophoblasts: 96 h culture, H&E, TrkB ectodomain 10 μg/ml, K252a 1,000 nM, K252b 1,000 nM
Experimental: (§1) Preparation and cultivation of human villous explants of first trimester placentas were performed as described (Non-patent Document 13). Briefly, human placental villi at 6-8 weeks of gestation were aseptically dissected to remove decidual tissue and fetal membranes. Small pieces of placental villi (8 mg wet weight) were dissected under a stereomicroscope (Leica Microsystems, Tokyo, Japan). Each villous piece was put on Millicell-CM culture dish inserts (12-mm diameter) (Millipore, Bedford, Mass.) that were precoated with 200 μl of undiluted Matrigel Growth Factor Reduced (BD Bioscience pharmingen) and placed in 24-well culture plates. The villous pieces were covered with 150 μl of culture medium (DMEM/F12 without serum supplemented with 100 U/ml penicillin, 100 μg/ml streptomycin, and 0.25 μg/ml ascorbic acid, pH 7.4) (Invitrogen, Carlsbad, Calif.), whereas the bottom chamber contained 500 μl of culture medium. […] Culture media were changed every 48 h and collected for measurement of glucose concentration.
(§2) At the end of cultures, some villous explants including EVT outgrowth were subjected to RNA extraction for real-time RT-PCR to quantify the transcript levels of human leukocyte antigen-G (HLA-G). Glucose utilization by the villous explants was calculated from the difference between glucose concentration in fresh medium and that in the conditioned medium after 48 h of culture using an enzymatic assay (Mitsubishi BCL, Tokyo, Japan). The results were expressed as mg per 0.1 g wet weight tissue/48 h.
(§3) In some experiments, morphological changes in villous explants were evaluated by hematoxylin and eosin (H&E) staining. Furthermore, the activity of cellular proliferation was determined by immunohistochemical detection of proliferating cell nuclear antigen (PCNA) and Ki-67 antigens. To measure the progression of apoptosis, some villous explants were subjected to a quantitative caspase-3/7 enzyme assay as described (Non-patent Documents 12, 16). Apoptosis in villous explants was also assayed by detecting DNA fragmentation using in situ terminal deoxynucleotidyl transferase-mediated […] nick end-labeling (TUNEL) (Non-patent Document 17).
(§4) To localize BDNF and TrkB, BDNF and TrkB immunostaining in placental villi and villous tissues of ectopic pregnancy were performed as described (Non-patent Document 11). BDNF antigen and TrkB antigen were detected by rabbit anti-BDNF polyclonal antibody (Chemicon, Temecula, Calif.) and chicken anti-TrkB polyclonal antibody (Promega, Madison, Wis.) recognizing full length TrkB were used, respectively, after dilution to 1:100. Some slides were subjected to proliferating cell nuclear antigen (PCNA) or Ki-67 immunostaining to evaluate cellular proliferation, whereas cytokeratin and HLA-G immunostaining were performed to identify trophoblasts and extravillous trophoblasts (EVTs) in the xenotransplanted human villi, respectively. After deparaffinization and dehydration, antigen retrieval was performed by autoclave heating at 121° C. for 10 min (PCNA and Ki-67), treatment with 0.4 mg/ml proteinase K (Sigma, St. Louis, Mo.) at room temperature for 5 min (cytokeratin), or microwave heating in 10 mM citrate buffer (pH 6) for 3×3 min (HLA-G). Endogenous peroxidase activities were quenched with 0.3% […] in methanol for 30 min. […]

[2] = tested on: human placental villi transplanted under the kidney capsule; assay: Xenotransplantation of human villi into SCID mice as in vivo model of ectopic pregnancy
From the text: (§5) To explore the roles of endogenous TrkB signaling in human ectopic pregnancy, xenotransplantation of human placental villi at 7-8 weeks of gestation into SCID mice (C.B-17/Icr-scid/scidJcl) (CLEA Japan, Tokyo, Japan) was used as an in vivo model. The care and use of animals was approved by the Animal Research Committee, Akita University School of Medicine. In preparation of grafts, small pieces of the placental villi were dissected as described above and kept in ice-cold PBS until transplantation. After anesthetizing of the SCID mice at 8-11 weeks of age with tribromoethanol (14-20 mg/kg) (Sigma, St. Louis, Mo.), the left and right kidneys were sequentially exteriorized. A 0.5 mm incision was then made in each kidney capsule, and a piece of the placental villi (5 mg wet weight) was transplanted underneath the capsule using a blunt tip tweezers. Treatment was initiated in animals after 1 week of transplantation when murine vascular networks were known to appear in areas of cytotrophoblast invasion (Non-patent Document 18). Animals weighted between 19-22 g on day of treatment. Intraperitoneal (ip) administration of K252a dissolved in physiological saline (500 μg/kg) was performed daily. For negative controls, treatment with K252b (500 μg/kg) or vehicle alone was used. The doses of K252a and K252b chosen for these experiments were based on previous studies (Non-patent Documents 12, 19). Some animals were treated daily with methotrexate (ip; 1 mg/kg) (Sigma) corresponding to the therapeutic dose used for medical treatment of ectopic pregnancy (Non-patent Document 3). The mice were killed after 7 days of treatment. Kidneys with villi transplants were excised and homogenized to measure hCG-β levels and caspase-3/7 activities. To identify trophoblasts in the kidney, cytokeratin, a marker for trophoblasts (Non-patent Document 20), was detected by immunohistochemistry. In addition to H&E staining, in vivo cell proliferation and apoptosis in the excised samples were evaluated by immunostaining of PCNA and Ki-67, and the TUNEL assay, respectively.
(§6) Quantitative real-time RT-PCR of TrkB and human leukocyte antigen-G (HLA-G) transcript levels in placental villi and mouse kidneys with xenotransplanted human villi was performed using a SmartCycler (Takara, Tokyo, Japan) with primers and hybridization probes for TrkB and β-actin as described (Non-patent Document 32). Primers for TrkB corresponded to the catalytic kinase domain of the receptor to avoid the amplification of truncated isoforms (Non-patent Document 33). Fragmented TrkB was specifically amplified using a reported primer (Non-patent Document 37). Validated Taqman gene expression assay was used to quantify the expression of HLA-G (Applied Biosystems, Forster City, Calif.). Data were normalized based on β-actin transcript levels.
as §4

[3] = tested on: human placental villous explants (extravillous trophoblasts); assay: Human villous explant culture: EVT outgrowth and HLA-G transcript levels (trophoblast differentiation); format: cell-based; conditions: 96 h culture; for EVT outgrowth: villous explants 6-8 weeks of gestation, 3% O2, different doses; for transcript levels of HLA-G: villous explants, 3% O2, real-time RT-PCR
Experimental: as §1, §2, §6

[4] = Side effects and body weight of treated SCID mice; format: in vivo
From the text: as §5, with “Animals weighted between 19-22 g on day of treatment. Intraperitoneal (ip) administration of K252a dissolved in physiological saline (500 μg/kg) was performed daily. For negative controls, treatment with K252b (500 μg/kg) or vehicle alone was used. The doses of K252a and K252b chosen for these experiments were based on previous studies (Non-patent Documents 12, 19). Some animals were treated daily with methotrexate (ip; 1 mg/kg) (Sigma) corresponding to the therapeutic dose used for medical treatment of ectopic pregnancy (Non-patent Document 3). The mice were killed after 7 days of treatment. Kidneys with villi transplants were excised and homogenized to measure hCG-β levels and caspase-3/7 activities.” left out

[5] = tested on: human placental villous explants (villous trophoblasts); assay: Human villous explant culture: apoptosis (TUNEL, caspase-3/7 enzyme assay); format: cell-based; conditions: 96 h culture; for proportion of TUNEL-positive nuclei: TrkB ectodomain 10 μg/ml, K252a 1,000 nM, K252b 1,000 nM; for caspase-3/7 activities, increase relative to controls: villous explants, 3% O2
Experimental: as §1, §3

[6] = K252a 500 μg/kg ip daily for 7 days

Compound	detachment of trophoblast layers from villous stromal core [1]	number of villous cytotrophoblasts [1]	EVT outgrowth [3]	transcript levels of HLA-G [3]	proportion of TUNEL-positive nuclei [5]	caspase-3/7 activities, increase relative to controls [5]	other results
COC(=O)[C@@]1(O)C[C@H]2O[C@]1(C)n1c3ccccc3c3c4c(c5c6ccccc6n2c5c31)C(=O)NC4 [K252a]	induced partial detachment of trophoblast layers	decreased the number of villous cytotrophoblasts	suppressed EVT outgrowth in a dose-dependent manner	decreases in the transcript levels of HLA-G	increased the proportion of TUNEL-positive nuclei	Increases in caspase-3/7 activities	inhibition at 1 µM ([1]; Homo sapiens, 48 h, read-out: glucose utilization by villous explants, inhibition): > 94%; TUNEL-positive nuclei in cytotrophoblasts [2, 6]: increases in TUNEL-positive nuclei; activation of caspase-3/7 within the xenografts, increase relative to vehicle [2, 6]: 4.1 fold; cell proliferation by PCNA and Ki-67 staining [2, 6]: suppression of cell proliferation; transcript levels for HLA-G in kidney with transplanted villi [2, 6]: major decreases in transcript levels for HLA-G; decrease in hCG-β levels in tissue homogenates ([2]; K252a 500 μg/kg ip daily for 7 days, RIA): 73.3%; cell numbers of invading EVTs and cytotrophoblasts in villous cores ([2]; K252a 500 μg/kg ip daily for 7 days, cytokeratin, HLA-G, H&E staining): decreases in cell numbers of invading EVTs and cytotrophoblasts; body weight ([4]; 500 μg/kg ip daily, during studies, mean±SEM): 19.27 ± 1.03 g; body weight changes ([4]; K252a 500 μg/kg ip daily): no body weight changes
C[C@]12O[C@H](C[C@]1(O)C(=O)O)n1c3ccccc3c3c4c(c5c6ccccc6n2c5c31)CNC4=O [K252b]							all parameters tested in the xenotransplant model ([2]; K252b 500 μg/kg ip daily for 7 days): ineffective
CN(Cc1cnc2nc(N)nc(N)c2n1)c1ccc(C(=O)N[C@@H](CCC(=O)O)C(=O)O)cc1 [MTX, methotrexate]							trophoblast differentiation, proliferation, and survival ([2]; MTX 1 mg/kg ip daily for 7 days): did not inhibit
TrkB ectodomain: soluble ectodomain of TrkB (R&D Systems), binds BDNF and competingly suppresses BDNF/TrkB binding	induced partial detachment of trophoblast layers	decreased the number of villous cytotrophoblasts	suppressed EVT outgrowth in a dose-dependent manner	decreases in the transcript levels of HLA-G	increased the proportion of TUNEL-positive nuclei	Increases in caspase-3/7 activities	
